The source of these data is ChEMBL document CHEMBL1138709, “Biological evaluation of novel estrogen-platinum(II) hybrid molecules on uterine and ovarian cancers-molecular modeling studies” (Bioorg Med Chem Lett, 2004).

Test [1] concerns the target T1, Estrogen receptor (Homo sapiens, UniProt Q92731+P03372). Kind of test: Inhibition of estrogen dependent human uterus cancer Ishikawa cell proliferation. It counts as functional, cell-based.
Test [2] can be described thus: inhibitory concentration against estrogen independent human uterus cancer cell line HEC-1-A. It counts as functional, cell-based. Conditions: cancer cell lines.
A short description of test [3]: inhibitory concentration against estrogen independent human uterus cancer cell line KLE. It counts as functional, cell-based. The settings on record: cancer cell lines.
A further test has as its system HeLa. Put plainly: inhibitory concentration against estrogen independent human uterus cancer cell line HeLa. It counts as functional, cell-based.
The target of test [4] is T1, Estrogen receptor. Put plainly: Inhibition of estrogen dependent human ovarian cancer OVCAR-3 cell proliferation. It counts as functional, cell-based.
Test [5] has as its system A2780. Put plainly: inhibitory concentration against estrogen independent human ovarian cancer cell line A2780cp. It counts as functional, cell-based.
In test [6] the test system is A2780. Kind of test: inhibitory concentration against estrogen independent human ovarian cancer cell line A2780wt. It counts as functional, cell-based.
In test [7] the target is T1, Estrogen receptor. Put plainly: Inhibition of estrogen dependent human ovarian cancer SKOV-3 cell proliferation. It is filed as functional, cell-based. Conditions: sk-ov-3.
In test [8] the target is T1, Estrogen receptor. Kind of test: Inhibition of estrogen dependent human uterus cancer RL-95-2 cell proliferation. It is filed as functional.

Broadly, the IC50 is the point on the concentration scale where inhibition reaches its midpoint. A high value points to weaker potency. Turning to CISPLATIN, the IC50 worked out at 7.9 µM against Estrogen receptor [1]; 11.7 µM in test [2]; 12.5 µM in test [3]; 3.6 µM in the test on HeLa; 2.5 µM against Estrogen receptor [4]; 6.5 µM with A2780 [5]. For the same sequence, the 50% inhibitory concentration (IC50) was determined as 0.7 µM in the test on A2780 [6], 5.8 µM on Estrogen receptor [7] and 10.3 µM against Estrogen receptor [8].
